Counter-ions that a name gives are not always drawn.
Target: T1, human S1P1 receptor (Homo sapiens, UniProt P21453)
T1 construct: expressed in transfected cells; membranes
Experiment: S1P1 GTPγS assay
Assay type: biochemical
Conditions: agonist activity, [35S]-GTPγS binding, human S1P1 rat hepatoma membranes
Protocol: (§1) For membrane preparations all steps were performed at 4° C. Rat hepatoma cells stably expressing the human S1P1 receptor or Rat Basophilic Leukaemia cells (RBL) stably expressing human S1P3 receptor were grown to 80% confluency before being harvested into 10 ml Phospho-Buffered Saline (PBS) and centrifuged at 1200 rpm for 5 minutes. After removal of the supernatant, the pellet was re-suspended and cells were homogenised within a glass Waring blender for 2 bursts of 15 secs in 200 mls of buffer (50 mM HEPES, 1 mM leupeptin, 25 μg/ml bacitracin, 1 mM EDTA, 1 mM PMSF, 2 μM pepstatin A). The blender was plunged into ice for 5 mins after the first burst and 10-40 mins after the final burst to allow foam to dissipate. The material was then spun at 500 g for 20 mins and the supernatant spun for 36 mins at 48,000 g. The pellet was resuspended in the same buffer as above but without PMSF and pepstatin A. The material was then forced through a 0.6 mm needle, made up to the required volume, (usually ×4 the volume of the original cell pellet), aliquoted and stored frozen at −80° C.
as §1, with “All” for “For membrane preparations all”, “Cells” for “Rat hepatoma cells stably expressing the human S1P1 receptor or Rat Basophilic Leukaemia cells (RBL) stably expressing human S1P3 receptor were grown to 80% confluency before being harvested into 10 ml Phospho-Buffered Saline (PBS) and centrifuged at 1200 rpm for 5 minutes. After removal of the supernatant, the pellet was re-suspended and cells”
Human S1P1 rat hepatoma membranes (1.5 μg/well) were adhered to a wheatgerm agglutinin (WGA)-coated scintillation proximity assay (SPA) beads (0.125 mg/well) in assay buffer (HEPES 20 mM, MgCl2 10 mM, NaCl 100 mM and pH adjusted to 7.4 using KOH 5M, GDP 10 μM FAC (final assay concentration) and saponin 90 μg/ml FAC was also added).
After 30 minutes pre-coupling on ice the bead and membrane suspension was dispensed into a white Greiner polypropylene LV384-well plate ([…]), containing 0.1 μl of the compound. 5 μl/well [^355]-GTPγS (0.5 nM final radioligand conc) made up in assay buffer was then added to agonist plates. The final assay cocktail (10.1 μl) was then centrifuged at 1000 rpm for 5 minutes then read immediately on a Viewlux reader.
All test compounds were dissolved in DMSO at a concentration of 10 mM and were prepared in 100% DMSO using a 1 in 4 dilution step to provide 11 point dose response curves. The dilutions were transferred to the assay plates ensuring that the DMSO concentration was constant across the plate for all assays.
All data was normalized to the mean of 16 high and 16 low control wells on each plate. A four parameter curve fit was then applied.
S1P1 expressing RH7777 membranes (1.5 μg/well) membranes (1.5 μg/well) were homogenised by passing through a 23G needle. These were then adhered to WGA-coated SPA beads (0.125 mg/well) in assay buffer (HEPES 20 mM, MgCl2 10 mM, NaCl 100 mM and pH adjusted to 7.4 using KOH 5M). GDP 10 μM FAC and saponin 90 μg/ml FAC were also added
After 30 minutes precoupling on ice, the bead and membrane suspension was dispensed into white Greiner polypropylene LV 384-well plates (5 μl/well), containing 0.1 μl of compound. 5 μl/well [^35S]-GTPγS (0.5 nM for S1P1 or 0.3 nM for S1P3 final radioligand concentration) made in assay buffer was then added to the plates. The final assay cocktail (10.1 μl) was then sealed, spun on a centrifuge, then read immediately on a Viewlux instrument.

T1 sequence (P21453 whole entry): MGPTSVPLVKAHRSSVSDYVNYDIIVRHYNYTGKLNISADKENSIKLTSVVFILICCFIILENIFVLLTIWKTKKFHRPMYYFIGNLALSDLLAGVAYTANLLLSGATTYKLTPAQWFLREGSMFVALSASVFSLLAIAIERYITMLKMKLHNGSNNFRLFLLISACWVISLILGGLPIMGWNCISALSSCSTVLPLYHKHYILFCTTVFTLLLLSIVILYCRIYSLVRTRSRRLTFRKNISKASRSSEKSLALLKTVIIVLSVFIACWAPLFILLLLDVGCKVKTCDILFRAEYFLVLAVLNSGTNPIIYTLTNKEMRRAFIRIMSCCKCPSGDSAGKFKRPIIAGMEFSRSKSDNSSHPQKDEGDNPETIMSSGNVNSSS

| Structure (SMILES) | EC50 [nM] |
| --- | --- |
| CC(C)Oc1ccc(-c2nc(-c3ccc4c(c3)CCN(CC(=O)O)CC4)no2)cc1C#N [Example 23, [7-(5-{3-Cyano-4-[(1-methylethyl)oxy]phenyl}-1,2,4-oxadiazol-3-yl)-1,2,4,5-tetrahydro-3H-3-benzazepin-3-yl]acetic acid] | ≤ 10 |
| CC(C)Oc1ccc(-c2nc(-c3cccc4c3OCCNC4)no2)cc1Cl [Example 31, 9-(5-{3-Chloro-4-[(1-methylethyl)oxy]phenyl}-1,2,4-oxadiazol-3-yl)-2,3,4,5-tetrahydro-1,4-benzoxazepine hydrochloride] | < 100 |
| CC(C)Oc1ccc(-c2nc(-c3cccc4c3OCCNC4)no2)cc1C#N [Example 32, 2-[(1-Methylethyl)oxy]-5-[3-(2,3,4,5-tetrahydro-1,4-benzoxazepin-9-yl)-1,2,4-oxadiazol-5-yl]benzonitrile hydrochloride] | < 100 |
| CC(C)Oc1ccc(-c2nc(-c3ccc4c(c3)CCN(CCC(=O)O)CC4)no2)cc1Cl [Example 21, 3-[7-(5-{3-Chloro-4-[(1-methylethyl)oxy]phenyl}-1,2,4-oxadiazol-3-yl)-1,2,4,5-tetrahydro-3H-3-benzazepin-3-yl]propanoic acid] | ≤ 10 |
| CC(C)Oc1ccc(-c2nc(-c3ccc4c(c3)CCN(CCCC(=O)O)CC4)no2)cc1C(F)(F)F [Example 28, 4-(7-{5-[4-[(1-Methylethyl)oxy]-3-(trifluoromethyl)phenyl]-1,2,4-oxadiazol-3-yl}-1,2,4,5-tetrahydro-3H-3-benzazepin-3-yl)butanoic acid hydrochloride] | ≤ 10 |
| CC(C)Oc1ccc(-c2nc(-c3cccc4c3OCCN(CCCC(=O)O)C4)no2)cc1C#N [Example 34, 4-[9-(5-{3-Cyano-4-[(1-methylethyl)oxy]phenyl}-1,2,4-oxadiazol-3-yl)-2,3-dihydro-1,4-benzoxazepin-4(5H)-yl]butanoic acid] | < 100 |
| CC(C)Oc1ccc(-c2nc(-c3cccc4c3OCCN(CCCC(=O)O)C4)no2)cc1Cl [Example 33, 4-[9-(5-{3-Chloro-4-[(1-methylethyl)oxy]phenyl}-1,2,4-oxadiazol-3-yl)-2,3-dihydro-1,4-benzoxazepin-4(5H)-yl]butanoic acid] | < 100 |
| CC(C)Oc1ccc(-c2nc(-c3cccc4c3OCCN(CCCCC(=O)O)C4)no2)cc1C#N [Example 43, 5-[9-(5-{3-Cyano-4-[(1-methylethyl)oxy]phenyl}-1,2,4-oxadiazol-3-yl)-2,3-dihydro-1,4-benzoxazepin-4(5H)-yl]pentanoic acid] | < 100 |
| O=C(O)CCCN1CCc2ccc(-c3noc(-c4ccc(-c5ccccc5)c(C(F)(F)F)c4)n3)cc2CC1 [Example 29, 4-(7-{5-[2-(Trifluoromethyl)-4-biphenylyl]-1,2,4-oxadiazol-3-yl}-1,2,4,5-tetrahydro-3H-3-benzazepin-3-yl)butanoic acid hydrochloride] | < 100 |
| CC(C)Oc1ccc(-c2nc(-c3ccc4c(c3)CCNCC4)no2)cc1C(F)(F)F [Example 19, 7-{5-[4-[(1-Methylethyl)oxy]-3-(trifluoromethyl)phenyl]-1,2,4-oxadiazol-3-yl}-2,3,4,5-tetrahydro-1H-3-benzazepine hydrochloride] | < 100 |
| CC(C)Oc1ncc(-c2nc(-c3ccc4c(c3)CCN(CCCC(=O)O)CC4)no2)cc1Cl [Example 50, 4-[7-(5-{5-Chloro-6-[(1-methylethyl)oxy]-3-pyridinyl}-1,2,4-oxadiazol-3-yl)-1,2,4,5-tetrahydro-3H-3-benzazepin-3-yl]butanoic acid] | < 100 |
| CC(C)Oc1ccc(-c2nc(-c3ccc4c(c3)CCN(CCCC(=O)O)CC4)no2)cc1C#N [Example 27, 4-[7-(5-{3-cyano-4-[(1-methylethyl)oxy]phenyl}-1,2,4-oxadiazol-3-yl)-1,2,4,5-tetrahydro-3H-3-benzazepin-3-yl]butanoic acid hydrochloride] | ≤ 10 |
| CC(C)Oc1ccc(-c2nc(-c3ccc4c(c3)CN(CCCC(=O)O)CCO4)no2)cc1C#N [Example 39, 4-[7-(5-{3-Cyano-4-[(1-methylethyl)oxy]phenyl}-1,2,4-oxadiazol-3-yl)-2,3-dihydro-1,4-benzoxazepin-4(5H)-yl]butanoic acid] | < 100 |
| CC(C)Oc1ccc(-c2nc(-c3cccc4c3CCCN(CC(=O)O)C4)no2)cc1Cl [Example 12, [6-(5-{3-Chloro-4-[(1-methylethyl)oxy]phenyl}-1,2,4-oxadiazol-3-yl)-1,3,4,5-tetrahydro-2H-2-benzazepin-2-yl]acetic acid hydrochloride] | < 100 |
| CC(C)Oc1ccc(-c2nc(-c3ccc4c(c3)OCCNC4)no2)cc1C#N [Example 41, 2-[(1-Methylethyl)oxy]-5-[3-(2,3,4,5-tetrahydro-1,4-benzoxazepin-8-yl)-1,2,4-oxadiazol-5-yl]benzonitrile] | < 100 |
| O=C(O)CN1CCc2ccc(-c3noc(-c4ccc(-c5ccccc5)c(C(F)(F)F)c4)n3)cc2CC1 [Example 25, (7-{5-[2-(Trifluoromethyl)-4-biphenylyl]-1,2,4-oxadiazol-3-yl}-1,2,4,5-tetrahydro-3H-3-benzazepin-3-yl)acetic acid] | < 100 |
| CC(C)Oc1ccc(-c2nc(-c3cccc4c3CCNCC4)no2)cc1Cl [Example 8, 6-(5-{3-Chloro-4-[(1-methylethyl)oxy]phenyl}-1,2,4-oxadiazol-3-yl)-2,3,4,5-tetrahydro-1H-3-benzazepine hydrochloride] | < 100 |
| CC(C)Oc1ccc(-c2nc(-c3ccc4c(c3)CCCN(CCC(=O)O)C4)no2)cc1C#N [Example 6, 3-[7-(5-{3-Cyano-4-[(1-methylethyl)oxy]phenyl}-1,2,4-oxadiazol-3-yl)-1,3,4,5-tetrahydro-2H-2-benzazepin-2-yl]propanoic acid hydrochloride] | < 100 |
| CC(C)Oc1ccc(-c2nc(-c3ccc4c(c3)CCN(CCCC(=O)O)CC4)no2)cc1Cl [Example 26, 4-[7-(5-{3-Chloro-4-[(1-methylethyl)oxy]phenyl}-1,2,4-oxadiazol-3-yl)-1,2,4,5-tetrahydro-3H-3-benzazepin-3-yl]butanoic acid] | ≤ 10 |
| CC(C)Oc1ncc(-c2nc(-c3ccc4c(c3)CCNCC4)no2)cc1C#N [Example 48, 2-[(1-Methylethyl)oxy]-5-[3-(2,3,4,5-tetrahydro-1H-3-benzazepin-7-yl)-1,2,4-oxadiazol-5-yl]-3-pyridinecarbonitrile formate] | < 100 |
| CC(C)Oc1ccc(-c2nc(-c3ccc4c(c3)CN(CCC(=O)O)CCO4)no2)cc1C#N [Example 37, 3-[7-(5-{3-Cyano-4-[(1-methylethyl)oxy]phenyl}-1,2,4-oxadiazol-3-yl)-2,3-dihydro-1,4-benzoxazepin-4(5H)-yl]propanoic acid] | < 100 |
| CC(C)Oc1ccc(-c2nc(-c3cccc4c3CCNCC4)no2)cc1C#N [Example 7, 2-[(1-Methylethyl)oxy]-5-[3-(2,3,4,5-tetrahydro-1H-3-benzazepin-6-yl)-1,2,4-oxadiazol-5-yl]benzonitrile hydrochloride] | ≤ 10 |
| CC(C)Oc1ccc(-c2nc(-c3ccc4c(c3)CCN(CC(=O)O)CC4)no2)cc1C(F)(F)F [Example 24, (7-{5-[4-[(1-Methylethyl)oxy]-3-(trifluoromethyl)phenyl]-1,2,4-oxadiazol-3-yl}-1,2,4,5-tetrahydro-3H-3-benzazepin-3-yl)acetic acid] | ≤ 10 |

Source: patent publication US20100174065A1, “COMPOUNDS” (GLAXO GROUP LIMITED, priority 2007, published 2010)
